What was measured:
Conditions in all cases: three weeks after treatment
Glycine max [1] = experiment: Post-emergence herbicidal evaluation, GLXMA
Description: (§2) Each pot is examined three weeks after treatment and phytotoxicity is assessed according to the rating system set forth below.
(§3) These acetone solutions are diluted with water and the resulting formulations applied at dosage levels equivalent of about 0.4 to 0.1 kg per hectare of test compound per pot. After spraying the plants are placed on greenhouse benches and are cared for in the usual manner, commensurate with conventional greenhouse practices.

Hordeum vulgare [2] = experiment: Pre-emergence herbicidal evaluation, HORVW; format: in vivo
Description: (§1) The treated pots are then placed on greenhouse benches, watered and cared for in accordance with conventional greenhouse procedures.

Oryza sativum [3] = experiment: Pre-emergence herbicidal evaluation, ORYSA; format: in vivo
Description: as §1

Echinochloa crus-galli [4] = experiment: Post-emergence herbicidal evaluation, ECHCG
Description: The compounds of the invention are tested for pre- and post-emergence herbicidal activity.
as §2, §3

Triticum aestivum [5] = experiment: Pre-emergence herbicidal evaluation, TRZAW; format: in vivo
Description: as §1

Alopecurus myosuroides [6] = experiment: Pre-emergence herbicidal evaluation, ALOMY; format: in vivo
Description: as §1

Apera spica venti [7] = experiment: Post-emergence herbicidal evaluation, APESV
Amaranthus tuberculatus [8] = experiment: Post-emergence herbicidal evaluation, AMATA; format: in vivo
Echinochloa crus-galli [9] = experiment: Pre-emergence herbicidal evaluation, ECHCG; format: in vivo
Description: as §1

Galium aparine = experiment: Post-emergence herbicidal evaluation, GALAP
Amaranthus tuberculatus [10] = experiment: Pre-emergence herbicidal evaluation, AMATA; format: in vivo
Description: as §1

Triticum aestivum [11] = experiment: Post-emergence herbicidal evaluation, TRZAW
Lolium perenne [12] = experiment: Post-emergence herbicidal evaluation, LOLPE
Description: as §2, §3

Zea mays [13] = experiment: Post-emergence herbicidal evaluation, ZEAMX
Zea mays [14] = experiment: Pre-emergence herbicidal evaluation, ZEAMX; format: in vivo
Description: as §1

Setaria viridis [15] = experiment: Pre-emergence herbicidal evaluation, SETVI; format: in vivo
Description: as §1

Alopecurus myosuroides [16] = experiment: Post-emergence herbicidal evaluation, ALOMY
Glycine max [17] = experiment: Pre-emergence herbicidal evaluation, GLXMA; format: in vivo
Description: as §1

Lolium perenne [18] = experiment: Pre-emergence herbicidal evaluation, LOLPE; format: in vivo
Description: as §1

Setaria viridis [19] = experiment: Post-emergence herbicidal evaluation, SETVI
Apera spica venti [20] = experiment: Pre-emergence herbicidal evaluation, APESV; format: in vivo
Description: as §1

Oryza sativum [21] = experiment: Post-emergence herbicidal evaluation, ORYSA
Hordeum vulgare [22] = experiment: Post-emergence herbicidal evaluation, HORVW

`CC1=CC(N(C)C(=O)COc2nnc(C(F)(F)C(F)(F)F)s2)=CC(C)(C)C1` [Example 7] was tested, and the “phytotoxicity rating GLXMA” value (Glycine max [1]; 0.100 kg/ha) was 2 (2 - Slight effect), the “phytotoxicity rating GLXMA” value (Glycine max [1]; 0.200 kg/ha) was 2 (2 - Slight effect) and the “phytotoxicity rating GLXMA” value (Glycine max [1]; 0.400 kg/ha) was 5 (5 - Definite injury). For the same compound, the “phytotoxicity rating HORVW” value (Hordeum vulgare [2]; 0.100 kg/ha) was 0 (0 - No effect), the “phytotoxicity rating HORVW” value (Hordeum vulgare [2]; 0.200 kg/ha) was 0 (0 - No effect) and the “phytotoxicity rating HORVW” value (Hordeum vulgare [2]; 0.400 kg/ha) was 1 (1 - Trace effect). For the same compound, the “phytotoxicity rating HORVW” value (Hordeum vulgare [2]; 0.800 kg/ha) was 1 (1 - Trace effect), the “phytotoxicity rating ORYSA” value (Oryza sativum [3]; 0.100 kg/ha) was 0 (0 - No effect) and the “phytotoxicity rating ORYSA” value (Oryza sativum [3]; 0.200 kg/ha) was 0 (0 - No effect). The “phytotoxicity rating ORYSA” value (Oryza sativum [3]; 0.400 kg/ha) was 0 (0 - No effect), the “phytotoxicity rating ORYSA” value (Oryza sativum [3]; 0.800 kg/ha) was 2 (2 - Slight effect) and the “phytotoxicity rating ECHCG” value (Echinochloa crus-galli [4]; 0.100 kg/ha) was 0 (0 - No effect). For the same compound, the “phytotoxicity rating ECHCG” value (Echinochloa crus-galli [4]; 0.200 kg/ha) was 0 (0 - No effect), the “phytotoxicity rating ECHCG” value (Echinochloa crus-galli [4]; 0.400 kg/ha) was 0 (0 - No effect) and the “phytotoxicity rating TRZAW” value (Triticum aestivum [5]; 0.100 kg/ha) was 0 (0 - No effect). For the same compound, the “phytotoxicity rating TRZAW” value (Triticum aestivum [5]; 0.200 kg/ha) was 0 (0 - No effect), the “phytotoxicity rating TRZAW” value (Triticum aestivum [5]; 0.400 kg/ha) was 0 (0 - No effect) and the “phytotoxicity rating TRZAW” value (Triticum aestivum [5]; 0.800 kg/ha) was 0 (0 - No effect). For the same compound, the “phytotoxicity rating ALOMY” value (Alopecurus myosuroides [6]; 0.100 kg/ha) was 0 (0 - No effect), the “phytotoxicity rating ALOMY” value (Alopecurus myosuroides [6]; 0.200 kg/ha) was 2 (2 - Slight effect) and the “phytotoxicity rating ALOMY” value (Alopecurus myosuroides [6]; 0.400 kg/ha) was 5 (5 - Definite injury). For the same compound, the “phytotoxicity rating ALOMY” value (Alopecurus myosuroides [6]; 0.800 kg/ha) was 5 (5 - Definite injury), the “phytotoxicity rating APESV” value (Apera spica venti [7]; 0.100 kg/ha) was 0 (0 - No effect) and the “phytotoxicity rating APESV” value (Apera spica venti [7]; 0.200 kg/ha) was 0 (0 - No effect). For the same compound, the “phytotoxicity rating APESV” value (Apera spica venti [7]; 0.400 kg/ha) was 2 (2 - Slight effect), the “phytotoxicity rating AMATA” value (Amaranthus tuberculatus [8]; 0.100 kg/ha) was 3 (3 - Moderate effect) and the “phytotoxicity rating AMATA” value (Amaranthus tuberculatus [8]; 0.200 kg/ha) was 3 (3 - Moderate effect). The “phytotoxicity rating AMATA” value (Amaranthus tuberculatus [8]; 0.400 kg/ha) was 5 (5 - Definite injury), the “phytotoxicity rating ECHCG” value (Echinochloa crus-galli [9]; 0.100 kg/ha) was 0 (0 - No effect) and the “phytotoxicity rating ECHCG” value (Echinochloa crus-galli [9]; 0.200 kg/ha) was 0 (0 - No effect). For the same compound, the “phytotoxicity rating ECHCG” value (Echinochloa crus-galli [9]; 0.400 kg/ha) was 6 (6 - Herbicidal effect), the “phytotoxicity rating ECHCG” value (Echinochloa crus-galli [9]; 0.800 kg/ha) was 9 (9 - Complete kill) and the “phytotoxicity rating GALAP” value (Galium aparine; 0.100 kg/ha) was 0 (0 - No effect). For the same compound, the “phytotoxicity rating GALAP” value (Galium aparine; 0.200 kg/ha) was 3 (3 - Moderate effect), the “phytotoxicity rating GALAP” value (Galium aparine; 0.400 kg/ha) was 5 (5 - Definite injury) and the “phytotoxicity rating AMATA” value (Amaranthus tuberculatus [10]; 0.100 kg/ha) was 0 (0 - No effect). The “phytotoxicity rating AMATA” value (Amaranthus tuberculatus [10]; 0.200 kg/ha) was 0 (0 - No effect), the “phytotoxicity rating AMATA” value (Amaranthus tuberculatus [10]; 0.400 kg/ha) was 3 (3 - Moderate effect) and the “phytotoxicity rating AMATA” value (Amaranthus tuberculatus [10]; 0.800 kg/ha) was 3 (3 - Moderate effect). For the same compound, the “phytotoxicity rating TRZAW” value (Triticum aestivum [11]; 0.100 kg/ha) was 0 (0 - No effect), the “phytotoxicity rating TRZAW” value (Triticum aestivum [11]; 0.200 kg/ha) was 0 (0 - No effect) and the “phytotoxicity rating TRZAW” value (Triticum aestivum [11]; 0.400 kg/ha) was 0 (0 - No effect). The “phytotoxicity rating LOLPE” value (Lolium perenne [12]; 0.100 kg/ha) was 0 (0 - No effect), the “phytotoxicity rating LOLPE” value (Lolium perenne [12]; 0.200 kg/ha) was 6 (6 - Herbicidal effect) and the “phytotoxicity rating LOLPE” value (Lolium perenne [12]; 0.400 kg/ha) was 6 (6 - Herbicidal effect). The “phytotoxicity rating ZEAMX” value (Zea mays [13]; 0.100 kg/ha) was 0 (0 - No effect), the “phytotoxicity rating ZEAMX” value (Zea mays [13]; 0.200 kg/ha) was 0 (0 - No effect) and the “phytotoxicity rating ZEAMX” value (Zea mays [13]; 0.400 kg/ha) was 0 (0 - No effect). For the same compound, the “phytotoxicity rating ZEAMX” value (Zea mays [14]; 0.100 kg/ha) was 0 (0 - No effect), the “phytotoxicity rating ZEAMX” value (Zea mays [14]; 0.200 kg/ha) was 0 (0 - No effect) and the “phytotoxicity rating ZEAMX” value (Zea mays [14]; 0.400 kg/ha) was 0 (0 - No effect). For the same compound, the “phytotoxicity rating ZEAMX” value (Zea mays [14]; 0.800 kg/ha) was 1 (1 - Trace effect), the “phytotoxicity rating SETVI” value (Setaria viridis [15]; 0.100 kg/ha) was 0 (0 - No effect) and the “phytotoxicity rating SETVI” value (Setaria viridis [15]; 0.200 kg/ha) was 0 (0 - No effect). The “phytotoxicity rating SETVI” value (Setaria viridis [15]; 0.400 kg/ha) was 0 (0 - No effect), the “phytotoxicity rating SETVI” value (Setaria viridis [15]; 0.800 kg/ha) was 2 (2 - Slight effect) and the “phytotoxicity rating ALOMY” value (Alopecurus myosuroides [16]; 0.100 kg/ha) was 0 (0 - No effect). The “phytotoxicity rating ALOMY” value (Alopecurus myosuroides [16]; 0.200 kg/ha) was 0 (0 - No effect), the “phytotoxicity rating ALOMY” value (Alopecurus myosuroides [16]; 0.400 kg/ha) was 4 (4 - Injury) and the “phytotoxicity rating GLXMA” value (Glycine max [17]; 0.100 kg/ha) was 0 (0 - No effect). The “phytotoxicity rating GLXMA” value (Glycine max [17]; 0.200 kg/ha) was 0 (0 - No effect), the “phytotoxicity rating GLXMA” value (Glycine max [17]; 0.400 kg/ha) was 0 (0 - No effect) and the “phytotoxicity rating GLXMA” value (Glycine max [17]; 0.800 kg/ha) was 0 (0 - No effect). The “phytotoxicity rating LOLPE” value (Lolium perenne [18]; 0.100 kg/ha) was 0 (0 - No effect), the “phytotoxicity rating LOLPE” value (Lolium perenne [18]; 0.200 kg/ha) was 0 (0 - No effect) and the “phytotoxicity rating LOLPE” value (Lolium perenne [18]; 0.400 kg/ha) was 3 (3 - Moderate effect). For the same compound, the “phytotoxicity rating LOLPE” value (Lolium perenne [18]; 0.800 kg/ha) was 9 (9 - Complete kill), the “phytotoxicity rating SETVI” value (Setaria viridis [19]; 0.100 kg/ha) was 0 (0 - No effect) and the “phytotoxicity rating SETVI” value (Setaria viridis [19]; 0.200 kg/ha) was 0 (0 - No effect). For the same compound, the “phytotoxicity rating SETVI” value (Setaria viridis [19]; 0.400 kg/ha) was 0 (0 - No effect), the “phytotoxicity rating APESV” value (Apera spica venti [20]; 0.200 kg/ha) was 0 (0 - No effect) and the “phytotoxicity rating APESV” value (Apera spica venti [20]; 0.400 kg/ha) was 0 (0 - No effect). For the same compound, the “phytotoxicity rating APESV” value (Apera spica venti [20]; 0.800 kg/ha) was 7 (7 - Good herbicidal effect), the “phytotoxicity rating ORYSA” value (Oryza sativum [21]; 0.100 kg/ha) was 0 (0 - No effect) and the “phytotoxicity rating ORYSA” value (Oryza sativum [21]; 0.200 kg/ha) was 0 (0 - No effect). The “phytotoxicity rating ORYSA” value (Oryza sativum [21]; 0.400 kg/ha) was 3 (3 - Moderate effect), the “phytotoxicity rating HORVW” value (Hordeum vulgare [22]; 0.100 kg/ha) was 0 (0 - No effect) and the “phytotoxicity rating HORVW” value (Hordeum vulgare [22]; 0.200 kg/ha) was 0 (0 - No effect). The “phytotoxicity rating HORVW” value (Hordeum vulgare [22]; 0.400 kg/ha) was 0 (0 - No effect).

From US6339042B1, “Herbicidal N-cyclohexadienyl heteroaryloxyacetamides” (American Cyanamid Co., priority 1999, dated 2002)
